Results as given in PubChem BioAssay (NCI).
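Results reflect a 48-hour exposure of cells in 96-well plates to compound at five concentrations. TGI: concentration producing complete growth inhibition.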

Experiments:
Assay in all cases: DTP human tumour cell line panel, 48 h
DMS 273 small cell lung = tested on: DMS 273 small cell lung
UACC-257 melanoma = tested on: UACC-257 melanoma
CCRF-CEM leukemia = tested on: CCRF-CEM leukemia
HOP-62 NSCLC = tested on: HOP-62 NSCLC
NCI-H226 lung = tested on: NCI-H226 lung
LOX IMVI melanoma = tested on: LOX IMVI melanoma
SR leukemia = tested on: SR leukemia
MALME-3M melanoma = tested on: MALME-3M melanoma
HCT-15 colon = tested on: HCT-15 colon
HCT-116 colon = tested on: HCT-116 colon
LXFL 529 NSCLC = tested on: LXFL 529 NSCLC
HCC-2998 colon = tested on: HCC-2998 colon
A498 renal = tested on: A498 renal
MOLT-4 leukemia = tested on: MOLT-4 leukemia
NCI-H23 lung = tested on: NCI-H23 lung
NCI-H460 lung = tested on: NCI-H460 lung
IGROV1 ovarian = tested on: IGROV1 ovarian
OVCAR-4 ovarian = tested on: OVCAR-4 ovarian
ACHN renal = tested on: ACHN renal
SF-268 CNS = tested on: SF-268 CNS
NCI-H522 lung = tested on: NCI-H522 lung
M14 melanoma = tested on: M14 melanoma
U251 CNS = tested on: U251 CNS
DLD-1 colon = tested on: DLD-1 colon
EKVX NSCLC = tested on: EKVX NSCLC
SF-295 CNS = tested on: SF-295 CNS
UO-31 renal = tested on: UO-31 renal
HOP-18 NSCLC = tested on: HOP-18 NSCLC
SK-MEL-2 melanoma = tested on: SK-MEL-2 melanoma
RXF-631 renal = tested on: RXF-631 renal
DMS 114 small cell lung = tested on: DMS 114 small cell lung
UACC-62 melanoma = tested on: UACC-62 melanoma
SNB-75 CNS = tested on: SNB-75 CNS
HT29 colon = tested on: HT29 colon
M19-MEL melanoma = tested on: M19-MEL melanoma
K-562 leukemia = tested on: K-562 leukemia
SN12C renal = tested on: SN12C renal
SNB-78 CNS = tested on: SNB-78 CNS
SK-OV-3 ovarian = tested on: SK-OV-3 ovarian
KM20L2 colon = tested on: KM20L2 colon
TK-10 renal = tested on: TK-10 renal
RXF 393 renal = tested on: RXF 393 renal
OVCAR-8 ovarian = tested on: OVCAR-8 ovarian
SW-620 colon = tested on: SW-620 colon
SNB-19 CNS = tested on: SNB-19 CNS
OVCAR-3 ovarian = tested on: OVCAR-3 ovarian
A549 NSCLC = tested on: A549 NSCLC
CAKI-1 renal = tested on: CAKI-1 renal
SK-MEL-5 melanoma = tested on: SK-MEL-5 melanoma
OVCAR-5 ovarian = tested on: OVCAR-5 ovarian
HL-60(TB) leukemia = tested on: HL-60(TB) leukemia
786-0 renal = tested on: 786-0 renal
SF-539 CNS = tested on: SF-539 CNS
HOP-92 NSCLC = tested on: HOP-92 NSCLC
SK-MEL-28 melanoma = tested on: SK-MEL-28 melanoma
XF 498 CNS = tested on: XF 498 CNS
COLO 205 colon = tested on: COLO 205 colon
RPMI-8226 leukemia = tested on: RPMI-8226 leukemia
KM12 colon = tested on: KM12 colon

## COc1ccc(/C(Cl)=C(\C=O)c2ccc(Cl)cc2)cc1
DMS 273 small cell lung
  TGI: > 100 µM
UACC-257 melanoma
  TGI: 77.4 µM
CCRF-CEM leukemia
  TGI: 11.4 µM
HOP-62 NSCLC
  TGI: 53.6 µM
NCI-H226 lung
  TGI: 48.1 µM
LOX IMVI melanoma
  TGI: 23.8 µM
SR leukemia
  TGI: 6.7 µM
MALME-3M melanoma
  TGI: > 100 µM
HCT-15 colon
  TGI: > 100 µM
HCT-116 colon
  TGI: 20.8 µM
LXFL 529 NSCLC
  TGI: 51 µM
HCC-2998 colon
  TGI: > 100 µM
A498 renal
  TGI: 74 µM
MOLT-4 leukemia
  TGI: 7.81 µM
NCI-H23 lung
  TGI: 17.1 µM
NCI-H460 lung
  TGI: > 100 µM
IGROV1 ovarian
  TGI: 42.1 µM
OVCAR-4 ovarian
  TGI: > 100 µM
ACHN renal
  TGI: 21.2 µM
SF-268 CNS
  TGI: 58.7 µM
NCI-H522 lung
  TGI: 5.89 µM
M14 melanoma
  TGI: > 100 µM
U251 CNS
  TGI: 17.7 µM
DLD-1 colon
  TGI: > 100 µM
EKVX NSCLC
  TGI: > 100 µM
SF-295 CNS
  TGI: 19.1 µM
UO-31 renal
  TGI: 33.1 µM
HOP-18 NSCLC
  TGI: > 100 µM
SK-MEL-2 melanoma
  TGI: 54.6 µM
RXF-631 renal
  TGI: 47.6 µM
DMS 114 small cell lung
  TGI: 32.5 µM
UACC-62 melanoma
  TGI: 32.8 µM
SNB-75 CNS
  TGI: 26.2 µM
HT29 colon
  TGI: 15.6 µM
M19-MEL melanoma
  TGI: 75.4 µM
K-562 leukemia
  TGI: > 100 µM
SN12C renal
  TGI: 13.6 µM
SNB-78 CNS
  TGI: > 100 µM
SK-OV-3 ovarian
  TGI: > 100 µM
KM20L2 colon
  TGI: 33.2 µM
TK-10 renal
  TGI: > 100 µM
RXF 393 renal
  TGI: 57.3 µM
OVCAR-8 ovarian
  TGI: 45.6 µM
SW-620 colon
  TGI: > 100 µM
SNB-19 CNS
  TGI: 87.4 µM
OVCAR-3 ovarian
  TGI: 32.1 µM
A549 NSCLC
  TGI: > 100 µM
CAKI-1 renal
  TGI: > 100 µM
SK-MEL-5 melanoma
  TGI: 32.6 µM
OVCAR-5 ovarian
  TGI: > 100 µM
HL-60(TB) leukemia
  TGI: 16.6 µM

## C[C@@H]1CC2(N=CCS2)[C@]2(O)O[C@@H]3C[C@@]4(C)[C@H](C[C@H]3O[C@@H]2O1)C[C@H]1O[C@]12[C@@H]4[C@H](O)C(=O)[C@]1(C)C(C3=CC(=O)OC3)CC[C@]21O (some centres undefined)
DMS 273 small cell lung
  TGI: 0.0214 µM
HOP-62 NSCLC
  TGI: 0.0211 µM
NCI-H226 lung
  TGI: 0.0746 µM
LOX IMVI melanoma
  TGI: 0.0239 µM
786-0 renal
  TGI: 0.0179 µM
SR leukemia
  TGI: 0.015 µM
MALME-3M melanoma
  TGI: 0.0285 µM
HCT-116 colon
  TGI: 0.0301 µM
LXFL 529 NSCLC
  TGI: 0.0166 µM
SF-539 CNS
  TGI: 0.0122 µM
HCC-2998 colon
  TGI: 0.0727 µM
A498 renal
  TGI: 0.0386 µM
HOP-92 NSCLC
  TGI: 0.08 µM
IGROV1 ovarian
  TGI: 0.159 µM
ACHN renal
  TGI: 0.0149 µM
SF-268 CNS
  TGI: 0.0146 µM
M14 melanoma
  TGI: 0.0497 µM
DLD-1 colon
  TGI: 0.0216 µM
UO-31 renal
  TGI: 0.0755 µM
SK-MEL-28 melanoma
  TGI: 0.089 µM
SK-MEL-2 melanoma
  TGI: 0.0749 µM
XF 498 CNS
  TGI: 0.0336 µM
RXF-631 renal
  TGI: 0.102 µM
UACC-62 melanoma
  TGI: 0.0511 µM
COLO 205 colon
  TGI: 0.0828 µM
SNB-75 CNS
  TGI: 0.0984 µM
M19-MEL melanoma
  TGI: 0.0784 µM
SN12C renal
  TGI: 0.0202 µM
SNB-78 CNS
  TGI: 0.0495 µM
SK-OV-3 ovarian
  TGI: 0.0778 µM
RPMI-8226 leukemia
  TGI: 0.0578 µM
CAKI-1 renal
  TGI: 0.0265 µM
HL-60(TB) leukemia
  TGI: 0.0353 µM

## Nc1nc(Cl)cc(NCCCCCCCCCCNc2cc(Cl)nc(N)n2)n1
DMS 273 small cell lung
  TGI: > 100 µM
UACC-257 melanoma
  TGI: > 100 µM
CCRF-CEM leukemia
  TGI: > 100 µM
HOP-62 NSCLC
  TGI: > 100 µM
NCI-H226 lung
  TGI: 20.3 µM
LOX IMVI melanoma
  TGI: 24.2 µM
786-0 renal
  TGI: 91.5 µM
SR leukemia
  TGI: > 100 µM
HCT-15 colon
  TGI: > 100 µM
HCT-116 colon
  TGI: > 100 µM
LXFL 529 NSCLC
  TGI: > 100 µM
SF-539 CNS
  TGI: > 100 µM
HCC-2998 colon
  TGI: > 100 µM
HOP-92 NSCLC
  TGI: > 100 µM
NCI-H23 lung
  TGI: > 100 µM
NCI-H460 lung
  TGI: > 100 µM
IGROV1 ovarian
  TGI: > 100 µM
OVCAR-4 ovarian
  TGI: > 100 µM
ACHN renal
  TGI: 0.0447 µM
SF-268 CNS
  TGI: > 100 µM
NCI-H522 lung
  TGI: 11.5 µM
M14 melanoma
  TGI: > 100 µM
U251 CNS
  TGI: > 100 µM
DLD-1 colon
  TGI: > 100 µM
EKVX NSCLC
  TGI: > 100 µM
KM12 colon
  TGI: > 100 µM
SF-295 CNS
  TGI: 46.4 µM
UO-31 renal
  TGI: > 100 µM
HOP-18 NSCLC
  TGI: > 100 µM
SK-MEL-2 melanoma
  TGI: > 100 µM
XF 498 CNS
  TGI: 8.86 µM
RXF-631 renal
  TGI: 40.3 µM
UACC-62 melanoma
  TGI: > 100 µM
COLO 205 colon
  TGI: > 100 µM
SNB-75 CNS
  TGI: 68.8 µM
HT29 colon
  TGI: > 100 µM
M19-MEL melanoma
  TGI: > 100 µM
K-562 leukemia
  TGI: > 100 µM
SN12C renal
  TGI: > 100 µM
SNB-78 CNS
  TGI: > 100 µM
SK-OV-3 ovarian
  TGI: > 100 µM
KM20L2 colon
  TGI: > 100 µM
TK-10 renal
  TGI: > 100 µM
RXF 393 renal
  TGI: > 100 µM
OVCAR-8 ovarian
  TGI: 63 µM
SW-620 colon
  TGI: > 100 µM
RPMI-8226 leukemia
  TGI: 91.4 µM
SNB-19 CNS
  TGI: > 100 µM
OVCAR-3 ovarian
  TGI: > 100 µM
A549 NSCLC
  TGI: > 100 µM
CAKI-1 renal
  TGI: > 100 µM
SK-MEL-5 melanoma
  TGI: 4.47 µM
OVCAR-5 ovarian
  TGI: > 100 µM
HL-60(TB) leukemia
  TGI: 34.6 µM

## C/C(=N\NC(=S)Nc1ccc([N+](=O)[O-])cc1S(=O)(=O)O)c1ccccn1
DMS 273 small cell lung
  TGI: > 100 µM
UACC-257 melanoma
  TGI: > 100 µM
CCRF-CEM leukemia
  TGI: > 100 µM
HOP-62 NSCLC
  TGI: > 100 µM
NCI-H226 lung
  TGI: > 100 µM
LOX IMVI melanoma
  TGI: > 100 µM
786-0 renal
  TGI: > 100 µM
SR leukemia
  TGI: 75.6 µM
MALME-3M melanoma
  TGI: > 100 µM
HCT-15 colon
  TGI: > 100 µM
HCT-116 colon
  TGI: > 100 µM
LXFL 529 NSCLC
  TGI: > 100 µM
SF-539 CNS
  TGI: > 100 µM
HCC-2998 colon
  TGI: > 100 µM
A498 renal
  TGI: 88.8 µM
HOP-92 NSCLC
  TGI: > 100 µM
MOLT-4 leukemia
  TGI: > 100 µM
NCI-H23 lung
  TGI: > 100 µM
NCI-H460 lung
  TGI: 69 µM
IGROV1 ovarian
  TGI: > 100 µM
OVCAR-4 ovarian
  TGI: 95.3 µM
ACHN renal
  TGI: > 100 µM
SF-268 CNS
  TGI: > 100 µM
M14 melanoma
  TGI: > 100 µM
U251 CNS
  TGI: > 100 µM
DLD-1 colon
  TGI: > 100 µM
EKVX NSCLC
  TGI: > 100 µM
KM12 colon
  TGI: > 100 µM
SF-295 CNS
  TGI: > 100 µM
UO-31 renal
  TGI: > 100 µM
HOP-18 NSCLC
  TGI: > 100 µM
SK-MEL-28 melanoma
  TGI: > 100 µM
SK-MEL-2 melanoma
  TGI: 91.3 µM
XF 498 CNS
  TGI: 78.7 µM
RXF-631 renal
  TGI: > 100 µM
DMS 114 small cell lung
  TGI: > 100 µM
UACC-62 melanoma
  TGI: > 100 µM
COLO 205 colon
  TGI: > 100 µM
SNB-75 CNS
  TGI: > 100 µM
HT29 colon
  TGI: > 100 µM
M19-MEL melanoma
  TGI: > 100 µM
K-562 leukemia
  TGI: > 100 µM
SN12C renal
  TGI: > 100 µM
SNB-78 CNS
  TGI: > 100 µM
KM20L2 colon
  TGI: 67.2 µM
TK-10 renal
  TGI: > 100 µM
RXF 393 renal
  TGI: 86.1 µM
OVCAR-8 ovarian
  TGI: > 100 µM
SW-620 colon
  TGI: 56.5 µM
RPMI-8226 leukemia
  TGI: > 100 µM
OVCAR-3 ovarian
  TGI: 72.7 µM
A549 NSCLC
  TGI: > 100 µM
CAKI-1 renal
  TGI: > 100 µM
SK-MEL-5 melanoma
  TGI: > 100 µM
OVCAR-5 ovarian
  TGI: > 100 µM
HL-60(TB) leukemia
  TGI: 84.8 µM
